From US20200157088A1, “BENZENE FUSED HETEROCYCLIC COMPOUND AND USE THEREOF” (TAIWANJ PHARMACEUTICALS CO., LTD., priority 2017, published 2020) come the findings set out here.

For one test, the target named is T1, autotaxin (Homo sapiens, UniProt Q13822).
T1 construct: purchased Cayman 10803
Description: Autotaxin inhibitor screening assay (choline release from LPC).
Conditions: not given
Format: biochemical. The procedure: Autotaxin activity was measured by choline release from LPC in presence or absence of compound.
Twenty (20) ng autotaxin (10803, Cayman, MI, USA) was incubated with 100 μM 14:0 LPC (855575P, Avanti, AL, USA) in a final volume of 100 μL buffer containing 50 mM Tris pH 8.0, 0.01% Triton X-100, 50 mM CaCl2, 1 unit/ml choline oxidase, 2 unit/ml HRP, 2 mM homovanilic acid (HVA). The relative amount of released choline was measured by HVA fluorescence in a 96-well plate. Fluorescent intensity was determined at λex/λem=320/450 nm every 60 seconds for 90 minutes with a SpectraMax i3 (Molecular Devices, CA, USA). Data analysis was performed using GraphPad Prism (GraphPad, La Jolla Calif., USA).
Inhibition %=[1−SlopeTA−SlopeBlank)/(Slopevehicle−SlopeBlank)]×100%
In the case of `Cc1cc(Cl)cc(COC(=O)N(C)C2CCc3ccc(C4=CCN(C(=O)CN5C(=O)CSC5=S)CC4)cc32)c1` (centres unmarked) [Compound 92], the inhibition – broadly, the drop in the measured response relative to a control, in per cent – at 1 µM is over 80%.

`CN(C(=O)OCc1cc(F)cc(Cl)c1)C1CCc2ccc(C3=CCN(C(=O)CN4C(=O)CSC4=S)CC3)cc21` (centres unmarked) [Compound 97] showed an inhibition at 1 µM of over 80%.

Compound `CCC1Oc2ccc(C3=CCN(C(=O)CN4CCOCC4)CC3)cc2C1N(C)C(=O)OCc1cc(Cl)cc(Cl)c1` (centres unmarked) [Compound 120] gave an inhibition at 1 µM of under 50%.

The test is the same for the next values; noted with them: inhibition of autotaxin enzyme activity at 1 μM compound; 100 μM 14:0 LPC; read-out: Inhibition.
In the case of `CN(C(=O)OCc1cc(Cl)cc(Cl)c1)c1csc2ccc(C3=CCN(C(=O)CN4C(=O)CSC4=S)CC3)cc12` [Compound 85], the inhibition at 1 µM was over 80%.

In the case of `CN(C(=O)OCc1cc(Cl)cc(C(F)(F)F)c1)C1CCc2ccc(C3=CCN(C(=O)CN4C(=O)CSC4=S)CC3)cc21` (centres unmarked) [Compound 93], the inhibition at 1 µM is over 80%.

Consider `Cc1cc(COC(=O)N(C)C2CCc3ccc(C4=CCN(C(=O)CN5C(=O)CSC5=S)CC4)cc32)cc(C(F)(F)F)c1` (centres unmarked) [Compound 94], for which the inhibition at 1 µM is over 80%.

On to `CN(C(=O)OCc1cc(C(F)(F)F)cc(C(F)(F)F)c1)C1CCc2ccc(C3=CCN(C(=O)CN4C(=O)CSC4=S)CC3)cc21` (centres unmarked) [Compound 95], for which the inhibition at 1 µM is over 80%.

On to `CN(C(=O)OCc1cc(Cl)ccc1Cl)C1CCc2ccc(C3=CCN(C(=O)CN4C(=O)CSC4=S)CC3)cc21` (centres unmarked) [Compound 96], for which the inhibition at 1 µM was over 80%.

As for `Cc1oc2ccc(C3=CCN(C(=O)CN4C(=O)CSC4=S)CC3)cc2c1N(C)C(=O)OCc1cc(C(F)(F)F)cc(C(F)(F)F)c1` [Compound 102], the inhibition at 1 µM was over 80%.

Take `Cc1oc2ccc(C3=CCN(C(=O)CS(C)(=O)=O)CC3)cc2c1N(C)C(=O)OCc1cc(C(F)(F)F)cc(C(F)(F)F)c1` [Compound 103]: the inhibition at 1 µM was in the range of 50 to 80%.

In the case of `CCN(C(=O)OCc1cc(C(F)(F)F)cc(C(F)(F)F)c1)c1c(C)oc2ccc(C3=CCN(C(=O)CN4C(=O)CSC4=S)CC3)cc12` [Compound 105], the inhibition at 1 µM was over 80%.

With `Cc1c(N(C)C(=O)OCc2cc(C(F)(F)F)cc(C(F)(F)F)c2)c2cc(C3=CCN(C(=O)CN4C(=O)CSC4=S)CC3)ccc2n1C` [Compound 109], the inhibition at 1 µM lay in the range of 50 to 80%.

Regarding `COc1cc(C2=CCN(C(=O)CN3C(=O)CSC3=S)CC2)cc2c(N(C)C(=O)OCc3cc(C(F)(F)F)cc(C(F)(F)F)c3)coc12` [Compound 112], the inhibition at 1 µM is over 80%.

For `CC1Cc2ccc(C3=CCN(C(=O)CN4C(=O)CSC4=S)CC3)cc2C1N(C)C(=O)OCc1cc(Cl)cc(Cl)c1` (centres unmarked) [Compound 117], the inhibition at 1 µM was over 80%.

On to `CCC1Cc2ccc(C3=CCN(C(=O)CN4C(=O)CSC4=S)CC3)cc2C1N(C)C(=O)OCc1cc(Cl)cc(Cl)c1` (centres unmarked) [Compound 119], for which the inhibition at 1 µM lay within 50 to 80%.

As to `CCC1Cc2ccc(C3=CCN(C(=O)CS(C)(=O)=O)CC3)cc2C1N(C)C(=O)OCc1cc(Cl)cc(Cl)c1` (centres unmarked) [Compound 121], the inhibition at 1 µM was under 50%.

Regarding `O=C(Nc1noc2ccc(C3=CCN(C(=O)CN4C(=O)CSC4=S)CC3)cc12)OCc1cc(Cl)cc(Cl)c1` [Compound 127], the inhibition at 1 µM is 50 to 80%.

With `CN(C(=O)OCc1cc(Cl)cc(Cl)c1)c1noc2ccc(C3=CCN(C(=O)CN4C(=O)CSC4=S)CC3)cc12` [Compound 128], the inhibition at 1 µM was 50 to 80%.

For `CCN(C(=O)OCc1cc(Cl)cc(Cl)c1)c1noc2ccc(C3=CCN(C(=O)CN4C(=O)CSC4=S)CC3)cc12` [Compound 129], the inhibition at 1 µM lay in the range of 50 to 80%.

For `CCN(C(=O)OCc1cc(Cl)cc(Cl)c1)C1CCc2ccc(C3=CCN(C(=O)CN4C(=O)CSC4=S)CC3)cc21` (centres unmarked) [Compound 130], the inhibition at 1 µM was over 80%.

As to `O=C(Nc1noc2ccc(C3=CCN(C(=O)CN4C(=O)CSC4=S)CC3)cc12)OCc1cc(C(F)(F)F)cc(C(F)(F)F)c1` [Compound 131], the inhibition at 1 µM was in the range of 50 to 80%.

Take `CN(C(=O)OCc1cc(C(F)(F)F)cc(C(F)(F)F)c1)c1noc2ccc(C3=CCN(C(=O)CN4C(=O)CSC4=S)CC3)cc12` [Compound 132]: the inhibition at 1 µM was 50 to 80%.

As for `CCN(C(=O)OCc1cc(C(F)(F)F)cc(C(F)(F)F)c1)c1noc2ccc(C3=CCN(C(=O)CN4C(=O)CSC4=S)CC3)cc12` [Compound 133], the inhibition at 1 µM lay in the range of 50 to 80%.

In the case of `CN(C(=O)CCc1cc(Cl)cc(Cl)c1)C1CCc2ccc(C3=CCN(C(=O)CN4C(=O)CSC4=S)CC3)cc21` (centres unmarked) [Compound 137], the inhibition at 1 µM lay within 50 to 80%.

Turning to `CN(C(=O)CCc1cc(Cl)cc(Cl)c1)C1CCc2ccc(C3=CCN(C(=O)CCS(C)(=O)=O)CC3)cc21` (centres unmarked) [Compound 138], the inhibition at 1 µM was 50 to 80%.

As to `CN(C(=O)OCc1cc(Cl)cc(Cl)c1)C1CCc2ccc(C3=CCN(C(=O)N4CCN(S(C)(=O)=O)C4=O)CC3)cc21` (centres unmarked) [Compound 139], the inhibition at 1 µM is under 50%.
